This note sets out measurements from patent US20240368150A1 (Hoffmann-La Roche Inc., priority 2021, published 2024).

Like-named read-outs stand apart in the source and are kept apart here.

The target of one test is hDGKalpha(1-735)-N-His (Homo sapiens (Human), UniProt P23743). As to the kind of experiment: DGKalpha ADP Glo assay (in vitro DGK inhibition). Type of test: biochemical. The settings on record: DLG 125 uM, ATP 25 μM, DGK α 4 nM, 1 hour reaction. As to the method:
(§1) DGK α and ζ kinase use ATP to phosphorylate the substrate 1,2-dilauroyl-sn-glycerol (DLG, incorporated in the liposomes). ATP is converted to ADP as a result of this enzymatic reaction. After the kinase reaction, an ATP-depletion reagent is added to terminate the kinase reaction and deplete any remaining ATP, leaving only ADP. Second, a detection reagent is added to simultaneously convert ADP to ATP and allow the newly synthesized ATP to be converted to light using a coupled luciferase/luciferin reaction.
(§2) Purification of both enzymes was performed as previously described by Takahashi et al., PeerJ, 2018 (Takahashi, D.; Sakane, F. Expression and purification of human diacylglycerol kinase alpha from baculovirus-infected insect cells for structural studies. PeerJ 2018, 6, No. e5449).
(§3) A concentrated liposome solution was prepared in assay buffer without DTT and BSA: 2 mM of DLG in 21 mM of total liposome (2 mM DLG/8 mM PS/11 mM PC). […] The reactions were started by addition of DGK α and ζ kinases at 4 nM and 2 nM final concentrations, respectively. After 1 hour reaction, the amount of ADP formed was detected with the ADP-Glo kinase assay (Promega) according to the manufacturer instructions. Compounds were added in 11-points dose response, starting at […], 1:3 dilutions, with a final DMSO concentration of 2%. The multidrop combi was used as a liquid handler and luminescence was read with 0.5 s by the envision reader (PE).
(In ADP-Glo the light output rises with the ADP produced.)

In another test the target is hDGKzeta(1-928)-N-His (Homo sapiens (Human), UniProt Q13574). Put plainly: DGKzeta ADP Glo assay (in vitro DGK inhibition). Type of test: biochemical. The settings on record: DLG 125 uM, ATP 50 μM, DGK ζ 2 nM, 1 hour reaction. How it is done: as §1, §2, §3
hDGKzeta(1-928)-N-His, sequence (Q13574 whole entry): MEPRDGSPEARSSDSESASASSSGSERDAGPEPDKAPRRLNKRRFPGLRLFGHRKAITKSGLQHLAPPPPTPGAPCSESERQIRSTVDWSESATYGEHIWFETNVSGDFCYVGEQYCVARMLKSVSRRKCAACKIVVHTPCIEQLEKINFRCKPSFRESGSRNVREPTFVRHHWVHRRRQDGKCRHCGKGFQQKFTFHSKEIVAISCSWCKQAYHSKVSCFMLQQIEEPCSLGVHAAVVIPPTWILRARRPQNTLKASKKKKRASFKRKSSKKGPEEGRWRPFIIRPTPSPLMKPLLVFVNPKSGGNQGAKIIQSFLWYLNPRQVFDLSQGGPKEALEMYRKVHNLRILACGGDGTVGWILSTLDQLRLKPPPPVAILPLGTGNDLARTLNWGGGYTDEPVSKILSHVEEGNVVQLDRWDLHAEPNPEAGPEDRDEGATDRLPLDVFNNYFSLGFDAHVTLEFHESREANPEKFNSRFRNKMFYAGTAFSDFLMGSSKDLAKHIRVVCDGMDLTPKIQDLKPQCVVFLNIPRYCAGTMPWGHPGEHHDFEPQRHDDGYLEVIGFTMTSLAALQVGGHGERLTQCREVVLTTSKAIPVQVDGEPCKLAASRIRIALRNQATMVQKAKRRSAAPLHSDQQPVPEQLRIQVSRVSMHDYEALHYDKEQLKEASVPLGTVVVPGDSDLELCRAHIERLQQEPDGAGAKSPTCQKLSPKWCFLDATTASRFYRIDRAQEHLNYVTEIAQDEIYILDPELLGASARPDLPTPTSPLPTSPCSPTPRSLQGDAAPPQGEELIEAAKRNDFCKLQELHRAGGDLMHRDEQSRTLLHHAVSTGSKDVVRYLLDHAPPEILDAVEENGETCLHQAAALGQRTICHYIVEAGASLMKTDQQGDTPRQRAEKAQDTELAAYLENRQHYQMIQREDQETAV
For test [1], the system named is primary human T-cells. As to the kind of experiment: Proliferation assay after 5 days (CellTiter-Glo, CD3 stimulation; PBS counter screen). The format is cell-based. The following applies: CD3 stimulation; for Emax: read-out: Emax proliferation (% activation); for EC50: primary human T-cells, CellTiter-Glo after 5 days, EC50 of fitted sigmoidal curve, read-out: Tcell Proliferation CD3 EC50. The gist of the method:
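Cpds added to medium-only plates; 5 d culture. Readout CellTiter-Glo 2.0 (equal vol), RT 45 min equilibration, 15 min rocking RT, luminescence. ATP signal taken as cell number.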

The test system of a further test is MV-3 cells. As to the kind of experiment: T-cell - TCB - MV3 killing assay (MCSP-TCB, RFP object count by Incucyte). The format is cell-based, human. The following applies: 5 d; for Emax: read-out: MSCP TCB killing MV-3 cells 5 d Emax; for EC50: primary human T-cells + MCSP-TCB, MV-3 RFP cells, read-out: MSCP TCB killing MV-3 cells 5 d EC50.
Test [2] deals with primary human T-cells.
[3] abbreviates: Homo sapiens, T-cell, 120 h, 5 days, normalized to reference compound A1 as stimulator control = 100%, DMSO neutral control.
The mark [4] stands for this setting: Homo sapiens, MV-3, 120 h, normalized: MCSP-TCB only = neutral control, 20 μM reference compound A1 = 100%.

hDGKalpha(1-735)-N-His, sequence (P23743 whole entry): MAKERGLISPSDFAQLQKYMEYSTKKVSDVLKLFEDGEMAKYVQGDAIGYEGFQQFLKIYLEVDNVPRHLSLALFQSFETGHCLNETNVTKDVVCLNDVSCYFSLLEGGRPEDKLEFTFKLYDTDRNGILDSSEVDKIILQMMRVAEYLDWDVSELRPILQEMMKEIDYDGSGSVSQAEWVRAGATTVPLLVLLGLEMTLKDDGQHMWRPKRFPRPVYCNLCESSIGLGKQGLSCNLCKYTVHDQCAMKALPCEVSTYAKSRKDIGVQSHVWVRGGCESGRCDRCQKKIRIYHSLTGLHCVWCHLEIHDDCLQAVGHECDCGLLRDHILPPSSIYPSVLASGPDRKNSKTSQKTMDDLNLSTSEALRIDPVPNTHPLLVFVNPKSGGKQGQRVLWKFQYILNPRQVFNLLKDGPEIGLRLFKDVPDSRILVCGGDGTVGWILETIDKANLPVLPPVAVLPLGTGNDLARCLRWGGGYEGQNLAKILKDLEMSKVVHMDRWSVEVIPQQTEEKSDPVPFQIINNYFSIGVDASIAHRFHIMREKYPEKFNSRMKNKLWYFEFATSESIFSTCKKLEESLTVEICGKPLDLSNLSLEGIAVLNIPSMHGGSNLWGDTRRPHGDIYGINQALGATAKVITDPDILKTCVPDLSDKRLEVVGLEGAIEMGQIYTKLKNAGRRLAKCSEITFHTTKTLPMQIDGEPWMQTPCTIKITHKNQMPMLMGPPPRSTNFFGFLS

With `N[C@H]1CS(=O)(=O)c2ccc(-c3nnc(CC(F)(F)F)o3)cc2N(Cc2ccc(OC(F)(F)F)cc2)C1=O` [Example 416, (3R)-3-amino-1,1-dioxo-7-[5-(2,2,2-trifluoroethyl)-1,3,4-oxadiazol-2-yl]-5-[[4-(trifluoromethoxy)phenyl]methyl]-2,3-dihydro-1λ^6,5-benzothiazepin-4-one], the IC50 at hDGKalpha(1-735)-N-His came out at 1450 nM; against hDGKzeta(1-928)-N-His, 1680 nM. Further, the Emax came to 58% with primary human T-cells [1] (setting [3]) and 95% in the test with MV-3 cells (setting [4]). Further, the EC50 was 402 nM in the test with primary human T-cells [1] (Homo sapiens, T-cell, 120 h); 530 nM with MV-3 cells (Homo sapiens, MV-3, 120 h); 369 nM in the test on primary human T-cells [2].
Turning to `COC(=O)N1CC2CC(c3nnc(-c4cc5c(cc4F)S(=O)(=O)C[C@H](N)C(=O)N5Cc4ccc(Cl)cc4)o3)(C2)C1` [Example 184, methyl 1-[5-[(3R)-3-amino-5-[(4-chlorophenyl)methyl]-8-fluoro-1,1,4-trioxo-2,3-dihydro-1λ^6,5-benzothiazepin-7-yl]-1,3,4-oxadiazol-2-yl]-3-azabicyclo[3.1.1]heptane-3-carboxylate], the IC50 is 244 nM against hDGKalpha(1-735)-N-His and 290 nM at hDGKzeta(1-928)-N-His. Besides, the Emax was found to be 77% in the test on primary human T-cells [1] (setting [3]) and 79% in the test with MV-3 cells (setting [4]). The EC50 in the test on primary human T-cells [1] (Homo sapiens, T-cell, 120 h) stood at 24.2 nM; in the test with MV-3 cells (Homo sapiens, MV-3, 120 h), 90 nM; with primary human T-cells [2], 109 nM.
On to `CC(N)(c1nc(-c2cc3c(cc2F)S(=O)(=O)C[C@H](N)C(=O)N3Cc2ccc(OC(F)(F)F)cc2)no1)C(F)(F)F` (stereo partly drawn) [Example 331, (3R)-3-amino-7-[5-(1-amino-2,2,2-trifluoro-1-methyl-ethyl)-1,2,4-oxadiazol-3-yl]-8-fluoro-1,1-dioxo-5-[[4-(trifluoromethoxy)phenyl]methyl]-2,3-dihydro-1λ^6,5-benzothiazepin-4-one], for which the half-maximal inhibitory concentration (IC50) is 857 nM on hDGKalpha(1-735)-N-His and 176 nM against hDGKzeta(1-928)-N-His. Moreover, the Emax turned out to be 126% with primary human T-cells [1] (setting [3]) and 116% with MV-3 cells (setting [4]). Besides, the EC50 was found to be 58.4 nM in the test on primary human T-cells [1] (Homo sapiens, T-cell, 120 h); 30 nM with MV-3 cells (Homo sapiens, MV-3, 120 h); 74.6 nM in the test with primary human T-cells [2].
Turning to `N[C@H]1CS(=O)(=O)c2cc(F)c(-c3nnc(NC4CCC4)o3)cc2N(Cc2ccc(Cl)cc2)C1=O` [Example 459, (3R)-3-amino-5-[(4-chlorophenyl)methyl]-7-[5-(cyclobutylamino)-1,3,4-oxadiazol-2-yl]-8-fluoro-1,1-dioxo-2,3-dihydro-1λ^6,5-benzothiazepin-4-one], the concentration for half-maximal inhibition (IC50) is 625 nM against hDGKalpha(1-735)-N-His and 632 nM against hDGKzeta(1-928)-N-His. Moreover, the Emax with primary human T-cells [1] (setting [3]) and with MV-3 cells (setting [4]) was 91% in each case. In addition, the EC50 in the test with primary human T-cells [1] (Homo sapiens, T-cell, 120 h) worked out at 591 nM; in the test with MV-3 cells (Homo sapiens, MV-3, 120 h), 330 nM; in the test with primary human T-cells [2], 508 nM.
Regarding `CC(C)(C)c1nnc(-c2ccc3c(c2)N(Cc2ccc(OC4CCCC4)cc2)C(=O)[C@@H](N)CS3(=O)=O)o1` [Example 430, (3R)-3-amino-7-(5-tert-butyl-1,3,4-oxadiazol-2-yl)-5-[[4-(cyclopentoxy)phenyl]methyl]-1,1-dioxo-2,3-dihydro-1λ^6,5-benzothiazepin-4-one], the IC50 was 467 nM against hDGKalpha(1-735)-N-His and 594 nM on hDGKzeta(1-928)-N-His. For the same molecule, the Emax was 110% in the test with primary human T-cells [1] (setting [3]) and 96% in the test on MV-3 cells (setting [4]). The EC50 in the test on primary human T-cells [1] (Homo sapiens, T-cell, 120 h) amounted to 97 nM; in the test with MV-3 cells (Homo sapiens, MV-3, 120 h) it was 60 nM; in the test on primary human T-cells [2] it was 24.2 nM.
As for `CC(C)(C)c1nnc(-c2cc3c(cc2F)S(=N)(=O)C[C@H](N)C(=O)N3Cc2ccc(OC(F)(F)F)cc2)o1` (single isomer, unassigned) [Example 518], the figures for the IC50 against hDGKalpha(1-735)-N-His and against hDGKzeta(1-928)-N-His were 442 nM and 639 nM, respectively. Moreover, the “Emax proliferation (% activation)” value in the test on primary human T-cells [1] (5 days, normalized to reference compound A1 as stimulator control = 100%, DMSO neutral control) came to 58 % activation. The EC50 with primary human T-cells [1] came out at 9070 nM; in the test with MV-3 cells it was 960 nM; with primary human T-cells [2], 135 nM. The “MSCP TCB killing MV-3 cells 5 d Emax” value in the test on MV-3 cells (normalized: MCSP-TCB only = neutral control, 20 μM reference compound A1 = 100%) is listed as 78%.
On to `CC1(Nc2nnc(-c3ccc4c(c3)N(Cc3ccc(Cl)cc3)C(=O)[C@@H](N)CS4(=O)=O)o2)CC(F)(F)C1` [Example 406, (3R)-3-amino-5-[(4-chlorophenyl)methyl]-7-[5-[(3,3-difluoro-1-methyl-cyclobutyl)amino]-1,3,4-oxadiazol-2-yl]-1,1-dioxo-2,3-dihydro-1λ^6,5-benzothiazepin-4-one], for which the IC50 against hDGKalpha(1-735)-N-His was 5020 nM; at hDGKzeta(1-928)-N-His, 14000 nM. Besides, the Emax with primary human T-cells [1] (setting [3]) came to 79%; in the test on MV-3 cells (setting [4]) it was 85%. For the same molecule, the EC50 with primary human T-cells [1] (Homo sapiens, T-cell, 120 h) was determined as 1860 nM; with MV-3 cells (Homo sapiens, MV-3, 120 h) it was 1540 nM; in the test with primary human T-cells [2] it was 2510 nM.
With `CC(C)(CO)c1nc(-c2cc3c(cc2F)S(=O)(=O)C[C@H](N)C(=O)N3Cc2ccc(Cl)cc2)no1` [Example 303, (3R)-3-amino-5-[(4-chlorophenyl)methyl]-8-fluoro-7-[5-(2-hydroxy-1,1-dimethyl-ethyl)-1,2,4-oxadiazol-3-yl]-1,1-dioxo-2,3-dihydro-1λ^6,5-benzothiazepin-4-one], the IC50 against hDGKalpha(1-735)-N-His came to 301 nM; against hDGKzeta(1-928)-N-His it was 251 nM. Further, the results for the Emax in the test with primary human T-cells [1] (setting [3]) and in the test with MV-3 cells (setting [4]) were 140% and 92%, respectively. For the same molecule, the EC50 with primary human T-cells [1] (Homo sapiens, T-cell, 120 h) came to 605 nM; with MV-3 cells (Homo sapiens, MV-3, 120 h) it was 400 nM; with primary human T-cells [2] it was 1070 nM.
In the case of `CC(C)(CO)c1nnc(-c2cc3c(cc2F)S(=O)(=O)C[C@H](N)C(=O)N3Cc2ccc(Cl)cc2)o1` [Example 86, (3R)-3-amino-5-[(4-chlorophenyl)methyl]-8-fluoro-7-[5-(2-hydroxy-1,1-dimethyl-ethyl)-1,3,4-oxadiazol-2-yl]-1,1-dioxo-2,3-dihydro-1λ^6,5-benzothiazepin-4-one], the results for the IC50 against hDGKalpha(1-735)-N-His and at hDGKzeta(1-928)-N-His were 643 nM and 685 nM, respectively. Moreover, the Emax in the test with primary human T-cells [1] (setting [3]) was 95%; with MV-3 cells (setting [4]), 100%. The EC50 with primary human T-cells [1] (Homo sapiens, T-cell, 120 h) stood at 777 nM; in the test with MV-3 cells (Homo sapiens, MV-3, 120 h), 520 nM; in the test with primary human T-cells [2], 4180 nM.
On to `CC(C)(C)c1nnc(-c2cc3c(cc2Cl)S(=O)(=O)C[C@H](N)C(=O)N3Cc2ccc(Cl)cc2)o1` [Example 523, (3R)-3-amino-7-(5-tert-butyl-1,3,4-oxadiazol-2-yl)-8-chloro-5-[(4-chlorophenyl)methyl]-1,1-dioxo-2,3-dihydro-1λ^6,5-benzothiazepin-4-one], for which the IC50 on hDGKalpha(1-735)-N-His was 1290 nM; on hDGKzeta(1-928)-N-His it was 1510 nM. Further, the Emax in the test on primary human T-cells [1] (setting [3]) is 45%. The EC50 with primary human T-cells [1] (Homo sapiens, T-cell, 120 h) was 462 nM; in the test on primary human T-cells [2] it was 5280 nM.
`N[C@H]1CS(=O)(=O)c2cc(F)c(-c3noc(C(N)(c4ccc(F)cc4)C(F)(F)F)n3)cc2N(Cc2ccc(Cl)cc2)C1=O` (stereo partly drawn) [Example 300, (3R)-3-amino-7-[5-[1-amino-2,2,2-trifluoro-1-(4-fluorophenyl)ethyl]-1,2,4-oxadiazol-3-yl]-5-[(4-chlorophenyl)methyl]-8-fluoro-1,1-dioxo-2,3-dihydro-1λ^6,5-benzothiazepin-4-one]: the IC50 against hDGKalpha(1-735)-N-His worked out at 3940 nM; against hDGKzeta(1-928)-N-His, 481 nM. In the test on primary human T-cells [1] (setting [3]), the Emax is 193%. Further, the EC50 is 127 nM in the test with primary human T-cells [1] (Homo sapiens, T-cell, 120 h) and 243 nM with primary human T-cells [2].
On to `N[C@H]1CS(=O)(=O)c2cc(F)c(-c3noc(C4(CO)CCCO4)n3)cc2N(Cc2ccc(Oc3ccccc3)cc2)C1=O` (stereo partly drawn) [Example 521, (3R)-3-amino-8-fluoro-7-[5-[2-(hydroxymethyl)tetrahydrofuran-2-yl]-1,2,4-oxadiazol-3-yl]-1,1-dioxo-5-[(4-phenoxyphenyl)methyl]-2,3-dihydro-1λ^6,5-benzothiazepin-4-one], for which the IC50 stood at 3000 nM on hDGKalpha(1-735)-N-His and 338 nM at hDGKzeta(1-928)-N-His. Besides, in the test with primary human T-cells [1] (setting [3]), the Emax was found to be 189%. In addition, the EC50 with primary human T-cells [1] (Homo sapiens, T-cell, 120 h) is 622 nM; in the test with primary human T-cells [2], 783 nM.

By IC50 is commonly meant the midpoint of a concentration-inhibition curve. The low end stands for greater potency, the high end for weaker potency.
